Measurements: US20070105114A1, “Biomarkers of cyclin-dependent kinase modulation” (priority 2003, published 2007)
Structures can show the parent of a compound that is named as a salt.

Columns and labels:
W28729 [1] = assay: Clinical study CA174-002 (24 hr infusion), W28729 expression in patient PBMC by RT-PCR; assay type: in vivo, human; conditions: patients
Experimental: (§1) Patient inclusion criteria: The patient inclusion criteria included: primary solid malignancy refractory to current therapy and adequate bone marrow, hepatic, and renal function. Treatments: Two different treatments were undertaken: (i) 174-001 Study: 1 hr infusion of BMS-387032 q 3 wks; and (ii) 174-002 Study: 24 hr infusion of BMS-387032 q 3 wks. The sampling times were pre-dose, and 2, 6, 24 hour post-dose. W28729 Expression Analysis: RT-PCR. Patient blood samples were collected in PAXgene™ Blood Collection Tubes (Qiagen, catalog #762155). Total RNA was isolated following the manufacturer's instructions using a PAXgene™ blood RNA Kit (Qiagen, catalog #762134). W28729 and GAPDH (housekeeping gene) RNA abundance was measured by Taqman assays, using an ABI PRISM 7900 HT Sequence Detection System. W28729 abundance was normalized relative to GAPDH. Primer and probe sequences are as shown below.

W28729 [2] = assay: Clinical study CA174-001 (1 hr infusion), W28729 expression in patient PBMC by RT-PCR; assay type: in vivo, human; conditions: patients
Experimental: as §1

A2780 xenografts = assay: Anti-tumor efficacy in A2780 xenografts (minimum efficacious dose); assay type: in vivo, mouse
Experimental: The human ovarian carcinoma xenograft A2780s were maintained in Balb/c nu/nu nude mice. Tumors were propagated as subcutaneous (sc) transplants using tumor fragments obtained from donor mice. For the cdk2 inhibitor treatment, tumors were allowed to grow to the pre-determined size window of approximately 100-200 mg (tumors outside the range were excluded) and animals were evenly distributed to various treatment and control groups (n=6). Treatment of each animal was based on individual body weight. The cdk2 inhibitor was first dissolved in a mixture of Cremophor®/ethanol (50:50). One hour prior to administration, the cdk2 inhibitor was diluted with water so that the dosing solutions contained the specified excipient composition, i.e., Cremophor®/ethanol/water (1:1:8, v/v). The volume of all compounds injected was 0.01 ml/gm of mice. The cdk2 inhibitor was administered as a bolus injection intraperitoneal at doses of 36 and 18 mg/kg. Tumor and plasma were sampled at the time points of 4, 7, and 24 hour post treatment. Plasma sample was frozen immediately at −80° C. for pharmacokinetic analysis, and tumor sample was preserved in RNAase free buffer for pharmacogenomic analysis. […] At the minimum efficacious dose (MED) of 18 mg/kg/day, the induction was sustained for more than 6 hours. […]

W28729 [3] = assay: W28729 expression in human ovarian carcinoma xenograft A2780 tumors in nude mice; assay type: in vivo, mouse
Experimental: The human ovarian carcinoma xenograft A2780s were maintained in Balb/c nu/nu nude mice. Tumors were propagated as subcutaneous (sc) transplants using tumor fragments obtained from donor mice. For the cdk2 inhibitor treatment, tumors were allowed to grow to the pre-determined size window of approximately 100-200 mg (tumors outside the range were excluded) and animals were evenly distributed to various treatment and control groups (n=6). Treatment of each animal was based on individual body weight. The cdk2 inhibitor was first dissolved in a mixture of Cremophor®/ethanol (50:50). One hour prior to administration, the cdk2 inhibitor was diluted with water so that the dosing solutions contained the specified excipient composition, i.e., Cremophor®/ethanol/water (1:1:8, v/v). The volume of all compounds injected was 0.01 ml/gm of mice. The cdk2 inhibitor was administered as a bolus injection intraperitoneal at doses of 36 and 18 mg/kg. Tumor and plasma were sampled at the time points of 4, 7, and 24 hour post treatment. Plasma sample was frozen immediately at −80° C. for pharmacokinetic analysis, and tumor sample was preserved in RNAase free buffer for pharmacogenomic analysis. The biomarker W28729 (SEQ ID NO: 1246) was selected as a preferred marker. A same-well multiplex real-time quantitative PCR assay on this biomarker with normalization control, house-keeping gene GAPDH, was developed using Taq-man MGB probes. Gene expression changes for W28729 were measured with real-time quantitative PCR assays in the following sample sets: A2780 human tumor cell line treated with 20 nM of cdk2 inhibitor for different durations (FIG. 3A), PBMC treated with 10n-M cdk2 inhibitor at 4 hours (FIG. 3B); and human ovarian carcinoma xenograft A2780 treated with cdk2 inhibitor at doses of 36 and 18 mg/kg for different durations (FIG. 3C). […] At the minimum efficacious dose (MED) of 18 mg/kg/day, the induction was sustained for more than 6 hours. In an infusion regimen using the minimum efficacious dose of 40 mg/kg, gene induction was sustained for at least 16 hours. […] Treatment with an efficacious regimen results in >2 fold induction of the sequence for 6 hours or longer. […] In addition, these observations support the use of PBMC as a surrogate tissue for monitoring changes in gene expression, that result from treatment with the cdk2 inhibitor.

mouse ortholog of W28729 = assay: Mouse ortholog of W28729 expression in PBMC of tumor mice; assay type: in vivo; conditions: PBMC isolated from the tumor mice, compared with tumors
Experimental: At the minimum efficacious dose (MED) of 18 mg/kg/day, the induction was sustained for more than 6 hours. In an infusion regimen using the minimum efficacious dose of 40 mg/kg, gene induction was sustained for at least 16 hours. […] Treatment with an efficacious regimen results in >2 fold induction of the sequence for 6 hours or longer. […] In addition, these observations support the use of PBMC as a surrogate tissue for monitoring changes in gene expression, that result from treatment with the cdk2 inhibitor.

With `CC(C)(C)c1cnc(CSc2cnc(NC(=O)C3CCNCC3)s2)o1` [cdk2 inhibitor, N-5-[[5-(1,1-Dimethylethyl)-2-oxazolyl]methyl]thio]-2-thiazolyl-4-piperidinecarboxamide, 0.5-L-tartaric acid salt] the “W28729 induction in PBMC” value (W28729 [1]) was “modest induction of W28729 expression”, the “time W28729 induction was sustained following end of infusion” value (W28729 [1]) was 6 h and the “time of return of W28729 to baseline levels” value (W28729 [2]; 1 hour infusion) was at most 6 h. For the same compound, the “W28729 induction in PBMC” value (W28729 [2]; 1 hour infusion, at 2 hours) was “transient induction of W28729”, the “relationship between W28729 gene induction and dose or exposure (AUC)” value (W28729 [2]; CA174-001) was “linear relationship” and the “minimum efficacious dose (MED)” value (A2780 xenografts; bolus i.p.) was 18 mg/kg/day. The minimum efficacious dose (A2780 xenografts; infusion regimen) was 40 mg/kg, the “pattern of W28729 induction in the tumors” value (W28729 [3]; A2780 xenografts, bolus i.p. treatments) was “transient, dose-dependent manner” and the “duration of sustained W28729 induction” value (W28729 [3]; A2780 xenografts, bolus i.p., MED of 18 mg/kg/day) was “more than 6 hours”. For the same compound, the “duration of sustained gene induction” value (W28729 [3]; A2780 xenografts, infusion regimen, 40 mg/kg) was “at least 16 hours”, the “induction of the sequence” value (W28729 [3]; efficacious regimen, for 6 hours or longer) was over 2 fold and the “duration of W28729 gene induction versus dose” value (W28729 [3]; nude mice bearing A2780 xenografts, 36 and 18 mg/kg) was “dose-dependent prolongation of the duration of gene induction”. For the same compound, the “induction of W28729 in tumor” value (W28729 [3]; nude mice bearing A2780 xenografts, efficacious doses (36 and 18 mg/kg)) was “induction of W28729” and the “induction of the mouse ortholog sequence in PBMC” value (mouse ortholog of W28729) was “strikingly similar pattern of induction”.
